Source: patent US8168651B2, “Protein kinase modulators” (Cylene Pharmaceuticals, Inc., priority 2008, dated 2012)
pIC50: −log10 of the molar value. Where two headings read alike, the source gives them in different places.

Experiments:
[1] = biological target: recombinant human PIM1 (Homo sapiens (Human), UniProt P11309); assay: PIM-1 kinase activity in cell-free in vitro assay; assay type: biochemical; details: for inhibition at 0.5 µM: 500 nM compound, read-out: PIM-1: % inh 500 nM
[2] = tested on: K-562; assay: Cell proliferation modulatory activity, K-562; assay type: cell-based; details: Homo sapiens, K562
[3] = biological target: Flt3 (Homo sapiens (Human), UniProt P36888); assay: FLT-3 kinase activity in cell free in vitro assay; assay type: biochemical; details: cell-free assay; for pIC50: read-out: FLT-3; for IC50: read-out: FLT-3 (uM) IC50
Flt3, sequence (P36888 27-993): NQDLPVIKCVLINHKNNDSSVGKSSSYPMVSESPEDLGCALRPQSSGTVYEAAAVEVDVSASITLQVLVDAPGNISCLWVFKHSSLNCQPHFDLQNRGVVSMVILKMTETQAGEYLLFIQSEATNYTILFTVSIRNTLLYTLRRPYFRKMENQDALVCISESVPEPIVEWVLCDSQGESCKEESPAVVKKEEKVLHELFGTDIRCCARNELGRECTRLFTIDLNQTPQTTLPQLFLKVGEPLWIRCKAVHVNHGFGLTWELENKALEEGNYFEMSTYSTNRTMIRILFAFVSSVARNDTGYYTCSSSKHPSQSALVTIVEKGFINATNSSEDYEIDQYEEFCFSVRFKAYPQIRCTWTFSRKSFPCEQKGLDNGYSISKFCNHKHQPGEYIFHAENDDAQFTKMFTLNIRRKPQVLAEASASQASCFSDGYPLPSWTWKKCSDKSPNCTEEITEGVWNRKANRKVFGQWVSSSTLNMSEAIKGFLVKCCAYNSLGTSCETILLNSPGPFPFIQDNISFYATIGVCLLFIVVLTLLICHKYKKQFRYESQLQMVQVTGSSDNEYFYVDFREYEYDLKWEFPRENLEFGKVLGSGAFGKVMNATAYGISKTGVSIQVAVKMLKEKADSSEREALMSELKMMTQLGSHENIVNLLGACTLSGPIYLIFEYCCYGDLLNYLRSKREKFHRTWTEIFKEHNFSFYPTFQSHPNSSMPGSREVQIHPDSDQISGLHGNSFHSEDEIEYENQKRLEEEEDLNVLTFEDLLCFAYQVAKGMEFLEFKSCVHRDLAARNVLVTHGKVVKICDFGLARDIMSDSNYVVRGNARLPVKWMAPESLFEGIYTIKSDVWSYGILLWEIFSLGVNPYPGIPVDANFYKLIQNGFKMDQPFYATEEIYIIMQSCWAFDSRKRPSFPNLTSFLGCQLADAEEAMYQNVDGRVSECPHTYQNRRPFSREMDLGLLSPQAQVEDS

[4] = tested on: MV-4-11; assay: Cell proliferation modulatory activity, MV-4-11; assay type: cell-based; details: Homo sapiens, MV4-11
[5] = tested on: HCT-116 human colorectal carcinoma cells; assay: Cell-proliferation assay using Alamar Blue dye; assay type: cell-based; details: Homo sapiens;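 also: cells exposed to compound for about 4 days, then Alamar Blue added and dye fluorescence read after about 4 h, compared with medium-only control wells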
[6] = biological target: recombinant human CK2 (Homo sapiens (Human), UniProt P68400); assay: CK2 assay (cell-free, 33P-ATP filter plate); assay type: biochemical; details: cell-free assay; for pIC50: 15 um ATP, read-out: CK2 (15 um ATP) IC50; for inhibition at 0.5 µM: 500 nM compound, read-out: CK2: % inh 500 nM
recombinant human CK2, sequence (P68400 whole entry): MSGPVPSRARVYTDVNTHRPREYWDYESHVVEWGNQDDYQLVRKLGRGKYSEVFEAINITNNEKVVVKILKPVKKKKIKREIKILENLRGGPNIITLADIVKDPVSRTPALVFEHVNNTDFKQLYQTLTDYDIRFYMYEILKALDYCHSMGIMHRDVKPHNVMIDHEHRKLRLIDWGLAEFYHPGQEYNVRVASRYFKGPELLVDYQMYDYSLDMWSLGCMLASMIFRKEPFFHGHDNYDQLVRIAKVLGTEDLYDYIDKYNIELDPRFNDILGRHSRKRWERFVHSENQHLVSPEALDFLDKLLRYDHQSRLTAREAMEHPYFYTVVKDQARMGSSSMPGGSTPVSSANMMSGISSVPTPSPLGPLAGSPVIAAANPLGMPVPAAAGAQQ
recombinant human CK2, sequence (P67870 whole entry partner): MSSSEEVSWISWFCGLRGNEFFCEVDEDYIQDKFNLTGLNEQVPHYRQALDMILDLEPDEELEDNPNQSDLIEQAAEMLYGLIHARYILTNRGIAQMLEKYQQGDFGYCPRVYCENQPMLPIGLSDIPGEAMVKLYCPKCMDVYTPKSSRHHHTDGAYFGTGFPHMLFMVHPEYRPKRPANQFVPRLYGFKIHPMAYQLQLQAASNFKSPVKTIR

[7] = tested on: Jurkat; assay: Cell proliferation modulatory activity, Jurkat; assay type: cell-based; details: Homo sapiens
[8] = tested on: MV-4-11; assay: Cell proliferation modulatory activity, MV-4-11; assay type: cell-based; details: Homo sapiens, MV4-11; MV-4-11 cells
[9] = tested on: K-562; assay: Cell proliferation modulatory activity, K-562; assay type: cell-based; details: Homo sapiens, K562; K-562 cells
[10] = tested on: K-562; assay: Cell proliferation modulatory activity, K-562; assay type: cell-based; details: Homo sapiens, K562; remark: listed apart in the source
[11] = HCT-116, HCT-116, second HCT-116 column (c8), read-out: HCT-116 (uM), cell proliferation modulatory activity
[12] = HCT-116, second HCT-116 column (c8), read-out: HCT-116 (uM) cell proliferation modulatory activity
[13] = HCT-116, read-out: HCT-116 (uM), cell proliferation modulatory activity, HCT-116, second column
[14] = HCT-116, read-out: HCT-116 (uM), cell proliferation modulatory activity, HCT-116, second HCT-116 column (c8)

recombinant human PIM1, sequence (P11309 whole entry): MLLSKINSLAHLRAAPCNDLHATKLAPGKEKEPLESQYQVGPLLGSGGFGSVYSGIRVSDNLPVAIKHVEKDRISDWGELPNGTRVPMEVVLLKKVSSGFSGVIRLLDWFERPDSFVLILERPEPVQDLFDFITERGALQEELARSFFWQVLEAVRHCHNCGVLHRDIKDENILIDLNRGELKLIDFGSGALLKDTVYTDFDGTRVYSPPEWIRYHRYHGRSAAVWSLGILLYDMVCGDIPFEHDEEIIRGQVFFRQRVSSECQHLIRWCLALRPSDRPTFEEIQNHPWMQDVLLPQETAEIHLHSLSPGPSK

Row | inhibition at 0.5 µM ([1]; cell-free assay) [%] | IC50 [2] [µM] | pIC50 [3] | IC50 [4] [µM] | IC50 [5, 11] [µM] | inhibition at 0.5 µM [6] [%] | IC50 [3] [µM] | IC50 [8] [µM] | IC50 [9] [µM] | Compound | also measured
1 | -29.4 | > 10 | 6.48 | 0.095 | > 10 | – | – | – | – | O=C(NCc1ccccc1)c1ccc2c(c1)nc(Nc1cccc(Cl)c1)c1ccncc12 | –
2 | -11.8 | > 10 | < 6.40 | 0.171 | 2.67 | – | – | – | – | CN1CCCN(C(=O)c2ccc3c(c2)nc(Nc2cccc(Cl)c2)c2ccncc23)CC1 | –
3 | -39.8 | > 10 | < 6.40 | – | > 10 | – | – | – | – | CNC(=O)c1ccc2c(c1)nc(Nc1cccc(Cl)c1)c1ccncc12 | pIC50 [6]: < 6.12; IC50 [7]: 13.7 µM
4 | -3.44 | 1.23 | 8.52 | 0.037 | 2.13 | 91.2 | – | – | – | NC(=O)c1ccc2c(c1)nc(Nc1cccc(Cl)c1)c1ccncc12 [drawing 1674] | pIC50 [6]: 6.38; IC50 [7]: 0.91 µM
5 | -5.01 | > 10 | < 6.40 | > 10 | > 10 | – | – | – | – | CC(=O)N1CCN(C(=O)c2ccc3c(c2)nc(Nc2cccc(Cl)c2)c2ccncc23)CC1 | –
6 | -9.45 | – | – | – | – | 66.1 | 0.167 | 0.373 | > 10 | NC(=O)c1ccc2c(c1)nc(Nc1ccc(F)c(Cl)c1)c1ccncc12 | IC50 [5, 12]: > 10 µM
7 | -16.2 | > 10 | < 6.40 | 0.112 | > 10 | – | – | – | – | O=C(NCc1cccnc1)c1ccc2c(c1)nc(Nc1cccc(Cl)c1)c1ccncc12 | –
8 | – | – | – | – | – | – | 0.087 | 7.26 | > 10 | O=C(O)c1ccc2c(c1)nc(Nc1ccc(Br)cc1F)c1ccncc12 | pIC50 ([1]; cell-free assay): 6.47; IC50 [5, 12]: > 10 µM
9 | – | – | – | – | – | – | – | – | – | O=C(O)c1ccc2c(c1)nc(Nc1cccc(F)c1)c1ncncc12 | inhibition at 0.5 µM ([1]; cell-free): 77.8%; pIC50 ([1]; cell-free): 6.44; IC50 [10]: 1.77 µM; IC50 [5, 13]: 7.1 µM
10 | – | – | – | – | – | – | – | – | – | O=C(O)c1ccc2c(c1)nc(NCCCc1ccccc1)c1ccncc12 [drawing 1561] | inhibition at 0.5 µM ([1]; cell-free): 69.7%; pIC50 ([1]; cell-free): 6.36; IC50 [10]: 7.17 µM; IC50 [5, 13]: > 10 µM
11 | 71.5 | – | – | – | – | -9.32 | > 0.4 | > 10 | > 10 | O=C(O)c1ccc2c(c1)nc(Nc1cccc(Cl)c1)c1cnccc12 | pIC50 ([1]; cell-free assay): 6.91; IC50 [5, 12]: > 10 µM
12 | -15.6 | – | – | – | – | 14.2 | > 0.4 | 0.691 | 2.61 | CONC(=O)c1ccc2c(c1)nc(Nc1cccc(Cl)c1)c1ccncc12 | IC50 [5, 12]: 4.54 µM
13 | 11.9 | – | – | – | – | 67.8 | > 0.4 | > 10 | > 10 | O=C(O)c1ccc2nc(Nc3cccc(Cl)c3)c3ccncc3c2c1 | IC50 [5, 12]: > 10 µM
14 | 4.85 | > 10 | < 6.40 | > 10 | 8.17 | – | – | – | – | CN(C)C(=O)c1ccc2c(c1)nc(Nc1cccc(Cl)c1)c1ccncc12 | pIC50 [6]: < 6.12; IC50 [7]: 1.51 µM
15 | -7.41 | > 10 | < 6.40 | > 10 | 5.97 | – | – | – | – | CC(C)(C)OC(=O)N1CCN(C(=O)c2ccc3c(c2)nc(Nc2cccc(Cl)c2)c2ccncc23)CC1 | –
16 | -11.9 | > 10 | – | 0.497 | 0.818 | – | – | – | – | O=C(NC1CC1)c1ccc2c(c1)nc(NC1CC1)c1nc(NC3CC3)ncc12 | pIC50 [6]: < 6.12; IC50 [7]: 0.436 µM
17 | 101 | – | – | – | – | 98.7 | 0.031 | 0.25 | 1.56 | O=C(O)c1ccc2c(c1)nc(Nc1cc(F)cc(Cl)c1)c1ccncc12 | pIC50 ([1]; cell-free assay): 7.12; IC50 [5, 12]: > 10 µM
18 | – | – | – | – | – | – | – | – | – | O=C(O)c1ccc2c(c1)nc(NCCc1cccc(Cl)c1)c1ccncc12 [drawing 1559] | inhibition at 0.5 µM ([1]; cell-free): 43.1%; pIC50 ([1]; cell-free): 5.98; IC50 [10]: 9.18 µM; IC50 [5, 13]: > 10 µM
19 | -19.8 | > 10 | 6.44 | > 10 | > 10 | – | – | – | – | Cc1cnc(CNC(=O)c2ccc3c(c2)nc(Nc2cccc(Cl)c2)c2ccncc23)cn1 | –
20 | -14.4 | > 10 | < 6.40 | > 10 | > 10 | – | – | – | – | O=C(c1ccc2c(c1)nc(Nc1cccc(Cl)c1)c1ccncc12)N1CCOCC1 | –

Row | inhibition at 0.5 µM ([1]; cell-free assay) [%] | IC50 [2] [µM] | pIC50 [3] | IC50 [4] [µM] | IC50 [5, 11] [µM] | inhibition at 0.5 µM [6] [%] | IC50 [3] [µM] | IC50 [8] [µM] | IC50 [9] [µM] | Compound | also measured
21 | 1.09 | – | – | – | – | 34.4 | 0.006 | 0.12 | 2.46 | NC(=O)c1ccc2c(c1)nc(Nc1cccc(C(F)(F)F)c1)c1ccncc12 | IC50 [5, 12]: 4.28 µM
22 | -11.1 | > 10 | 6.54 | > 10 | 9.88 | – | – | – | – | O=C(NCc1ccccn1)c1ccc2c(c1)nc(Nc1cccc(Cl)c1)c1ccncc12 | –
23 | -0.772 | > 10 | < 6.40 | 0.069 | > 10 | – | – | – | – | O=C(Nc1ccccc1)c1ccc2c(c1)nc(Nc1cccc(Cl)c1)c1ccncc12 | –
24 | -6.62 | > 10 | < 6.40 | > 10 | > 10 | – | – | – | – | O=C(Nc1nccs1)c1ccc2c(c1)nc(Nc1cccc(Cl)c1)c1ccncc12 | –
25 | -0.614 | – | – | – | – | 29.9 | 0.236 | 0.501 | > 10 | Clc1cccc(Nc2nc3cc(-c4nnco4)ccc3c3cnccc23)c1 | IC50 [5, 12]: 5.17 µM
26 | 1.16 | > 10 | < 6.40 | 0.099 | > 10 | – | – | – | – | O=C(NCCN1CCOCC1)c1ccc2c(c1)nc(Nc1cccc(Cl)c1)c1ccncc12 | –
27 | 88.8 | > 10 | – | 0.354 | – | – | – | – | – | O=C(O)c1ccc2c(c1)nc(Nc1cccc(C(F)(F)F)c1)c1ccncc12 | pIC50 ([1]; cell-free assay): 6.80; IC50 [7]: 3.15 µM; IC50 [5, 14]: 5.14 µM
28 | -17.3 | – | < 6.40 | – | – | – | – | – | – | O=C(O)c1ccc2c(c1)nc(Nc1cccc(C(F)(F)F)c1)c1nc(NC3CC3)ncc12 [drawing 1596] | IC50 [7]: 3.13 µM
29 | -10.8 | – | – | – | – | 34.9 | 0.075 | 2.14 | > 10 | NNC(=O)c1ccc2c(c1)nc(Nc1cccc(Cl)c1)c1ccncc12 | IC50 [5, 12]: > 10 µM
30 | -12.8 | > 10 | < 6.40 | 0.181 | 2.5 | – | – | – | – | O=C(NCc1ccncc1)c1ccc2c(c1)nc(Nc1cccc(Cl)c1)c1ccncc12 | –
31 | 10.1 | 0.061 | < 6.40 | 0.108 | – | – | – | – | – | CC(C)OC(=O)Nc1ccc2c(c1)nc(Nc1cccc(C(F)(F)F)c1)c1nc(NC3CC3)ncc12 | IC50 [7]: 1.16 µM
32 | 4.22 | 5.52 | 7.89 | 0.529 | – | – | – | – | – | OCc1ccc2c(c1)nc(Nc1cccc(Cl)c1)c1ccncc12 | IC50 [5, 14]: 4.28 µM
33 | -19.8 | > 10 | < 6.40 | > 10 | 7.22 | – | – | – | – | NCCNC(=O)c1ccc2c(c1)nc(Nc1cccc(Cl)c1)c1ccncc12 | IC50 [7]: 7.67 µM
34 | -22.8 | – | – | – | – | -42.8 | 0.344 | 2.82 | > 10 | Clc1cccc(Nc2nc3ccccc3c3cnccc23)c1 | IC50 [5, 12]: > 10 µM
35 | -19.3 | – | – | – | – | -2.18 | 0.09 | 1.06 | 0.546 | Clc1cccc(Nc2nc3cc(-c4nnc[nH]4)ccc3c3cnccc23)c1 | IC50 [5, 12]: > 10 µM
36 | 5.67 | – | – | – | – | 55.9 | 0.012 | 0.222 | > 10 | NC(=O)c1ccc2c(c1)nc(Nc1cc(F)cc(Cl)c1)c1ccncc12 | –
37 | -29.7 | > 10 | < 6.40 | 0.043 | > 10 | – | – | – | – | COCCNC(=O)c1ccc2c(c1)nc(Nc1cccc(Cl)c1)c1ccncc12 | –
38 | 12.5 | 0.157 | 6.46 | 0.149 | – | – | – | – | – | NC(=O)c1ccc2c(c1)nc(Nc1cccc(C(F)(F)F)c1)c1nc(NC3CC3)ncc12 | IC50 [7]: 1.16 µM
39 | -28.4 | > 10 | < 6.40 | > 10 | > 10 | – | – | – | – | CN1CCN(C(=O)c2ccc3c(c2)nc(Nc2cccc(Cl)c2)c2ccncc23)CC1 | –
40 | -5.18 | > 10 | < 6.40 | > 10 | > 10 | – | – | – | – | O=C(NC1CC1)c1ccc2c(c1)nc(Nc1cccc(Cl)c1)c1ccncc12 | pIC50 [6]: 6.31; IC50 [7]: 2.16 µM
